In patent publication US11370773B1, “Inhibiting human integrin (alpha-4) (beta-7)” (Morphic Therapeutic, Inc., priority 2019, dated 2022):

Tests used:
[1] = target: T1, integrin α4β7 (Homo sapiens, UniProt P13612+P26010); assay: Fluorescence Polarization (FP) assay for α4β7 binding, competition with fluorescein-labeled peptide; settings: 6.5 nM integrin α4β7, 3 nM fluorescein-labeled peptide, 2 mM MnCl2; read-out: FP Assay (Example 5) IC50
T1 sequence (P13612 34-977 limits assumed): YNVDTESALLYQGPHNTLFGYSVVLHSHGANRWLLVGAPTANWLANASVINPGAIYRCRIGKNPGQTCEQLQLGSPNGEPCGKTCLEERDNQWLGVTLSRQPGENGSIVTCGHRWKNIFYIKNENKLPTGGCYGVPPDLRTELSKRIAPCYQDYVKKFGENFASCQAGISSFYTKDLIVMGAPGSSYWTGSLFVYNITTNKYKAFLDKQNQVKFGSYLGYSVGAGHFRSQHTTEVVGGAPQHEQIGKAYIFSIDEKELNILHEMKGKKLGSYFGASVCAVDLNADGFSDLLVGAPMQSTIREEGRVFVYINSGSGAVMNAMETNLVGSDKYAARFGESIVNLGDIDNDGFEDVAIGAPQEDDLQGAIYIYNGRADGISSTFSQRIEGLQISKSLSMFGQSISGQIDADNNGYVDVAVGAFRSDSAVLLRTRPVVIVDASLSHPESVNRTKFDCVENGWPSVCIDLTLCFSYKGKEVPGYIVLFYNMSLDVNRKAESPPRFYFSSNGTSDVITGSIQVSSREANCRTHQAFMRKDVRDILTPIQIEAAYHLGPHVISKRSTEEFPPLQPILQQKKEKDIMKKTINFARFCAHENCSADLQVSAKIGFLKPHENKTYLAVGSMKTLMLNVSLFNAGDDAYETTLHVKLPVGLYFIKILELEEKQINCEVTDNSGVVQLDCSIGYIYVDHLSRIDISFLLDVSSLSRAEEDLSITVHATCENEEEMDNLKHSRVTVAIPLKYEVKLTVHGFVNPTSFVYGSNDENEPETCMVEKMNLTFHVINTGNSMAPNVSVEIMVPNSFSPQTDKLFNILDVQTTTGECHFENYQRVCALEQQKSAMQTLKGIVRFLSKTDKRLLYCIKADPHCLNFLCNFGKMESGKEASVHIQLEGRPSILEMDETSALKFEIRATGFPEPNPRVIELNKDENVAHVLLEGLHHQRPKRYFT
T1 sequence (P26010 20-723 limits assumed): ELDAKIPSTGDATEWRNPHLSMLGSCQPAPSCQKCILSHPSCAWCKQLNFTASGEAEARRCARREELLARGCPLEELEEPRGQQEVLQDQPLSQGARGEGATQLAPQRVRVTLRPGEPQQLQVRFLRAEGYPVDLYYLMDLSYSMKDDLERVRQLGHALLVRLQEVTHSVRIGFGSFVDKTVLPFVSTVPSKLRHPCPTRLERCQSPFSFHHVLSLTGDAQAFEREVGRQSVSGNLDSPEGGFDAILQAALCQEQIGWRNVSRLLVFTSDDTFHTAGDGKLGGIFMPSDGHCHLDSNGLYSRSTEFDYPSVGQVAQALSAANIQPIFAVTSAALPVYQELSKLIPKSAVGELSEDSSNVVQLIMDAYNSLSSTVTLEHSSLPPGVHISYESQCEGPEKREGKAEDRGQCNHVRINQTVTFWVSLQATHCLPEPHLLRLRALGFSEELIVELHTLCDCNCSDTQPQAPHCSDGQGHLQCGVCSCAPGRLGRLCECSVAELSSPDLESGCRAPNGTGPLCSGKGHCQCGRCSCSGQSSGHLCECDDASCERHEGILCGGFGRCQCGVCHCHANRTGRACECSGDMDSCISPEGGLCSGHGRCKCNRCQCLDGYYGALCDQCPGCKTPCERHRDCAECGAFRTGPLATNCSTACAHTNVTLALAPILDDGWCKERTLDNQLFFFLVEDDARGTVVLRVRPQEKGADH
Protocol: (§1) Three in vitro assays were used to examine the α4β7 mechanistic process used by cells: 1) ligand:receptor affinity, 2) the avidity of those interactions on a cell's surface, and 3) how those interactions fare under an imposing force. In Example 5, a Fluorescence Polarization (FP) assay is used to measure compound activity through binding competition with the fluorescein-labeled peptide. In Example 6, the potency of compounds against α4β7 is measured in the cell-based ligand binding assay (LBA), using RPMI 8866 cells incubated with the compound samples in competition with soluble MAdCAM-1 ligand. In Example 7, activity of compounds is evaluated in a cell adhesion assay that mechanistically tests what occurs in vivo when trafficking cells utilize α4β7 to adhere to MAdCAM-1 expressing HEVs of the gut during the extravasation process. In the cell adhesion assay of Example 7, a MAdCAM1-(Fc) is coated on plastic, and α4β7 expressing cells (RPMI-8866) are allowed to adhere to the coated surface in the presence of the test compounds. Next, the force of washing with buffer is applied to cells thereby testing the strength of that adhesion. Unattached cells are removed and the remaining adherent cells are quantified.
Fluorescence Polarization (FP) assays were used to measure compound activity through binding competition with the fluorescein-labeled peptide […]{Lys(FITC)}. In the assay, 6.5 nM of integrin α4β7 was incubated with the test compound in 2 mM manganese chloride, 0.1 mM calcium chloride, 20 mM HEPES buffer at pH 7.3, 150 mM sodium chloride, 0.01% Triton X-100, 2% DMSO, and 3 nM of the fluorescein-labeled peptide. Running the assays in 384-well plates, the integrin protein was pre-incubated with the test compounds for 15 minutes at 22° C. before the fluorescein-labeled peptide was added. After the fluorescein-labeled peptide was added, the assay was incubated at 22° C. for 1 hour and fluorescence polarization was measured. IC50 values were determined by non-linear regression, four-parameter curve fitting.

[2] = target: T2, α4β7 (Homo sapiens, UniProt P13612+P26010); assay: Cell adhesion assay, RPMI8866 cells adhering to MAdCAM coated plates; format: cell-based; settings: RPMI8866 cells on recombinant human MAdCAM coated plates; read-out: CA Assay (Example 7) IC50
T2 construct: α4β7 expressing cells (RPMI-8866); endogenous in cells; host or cells: RPMI 8866
T2 sequence (P13612 34-1032): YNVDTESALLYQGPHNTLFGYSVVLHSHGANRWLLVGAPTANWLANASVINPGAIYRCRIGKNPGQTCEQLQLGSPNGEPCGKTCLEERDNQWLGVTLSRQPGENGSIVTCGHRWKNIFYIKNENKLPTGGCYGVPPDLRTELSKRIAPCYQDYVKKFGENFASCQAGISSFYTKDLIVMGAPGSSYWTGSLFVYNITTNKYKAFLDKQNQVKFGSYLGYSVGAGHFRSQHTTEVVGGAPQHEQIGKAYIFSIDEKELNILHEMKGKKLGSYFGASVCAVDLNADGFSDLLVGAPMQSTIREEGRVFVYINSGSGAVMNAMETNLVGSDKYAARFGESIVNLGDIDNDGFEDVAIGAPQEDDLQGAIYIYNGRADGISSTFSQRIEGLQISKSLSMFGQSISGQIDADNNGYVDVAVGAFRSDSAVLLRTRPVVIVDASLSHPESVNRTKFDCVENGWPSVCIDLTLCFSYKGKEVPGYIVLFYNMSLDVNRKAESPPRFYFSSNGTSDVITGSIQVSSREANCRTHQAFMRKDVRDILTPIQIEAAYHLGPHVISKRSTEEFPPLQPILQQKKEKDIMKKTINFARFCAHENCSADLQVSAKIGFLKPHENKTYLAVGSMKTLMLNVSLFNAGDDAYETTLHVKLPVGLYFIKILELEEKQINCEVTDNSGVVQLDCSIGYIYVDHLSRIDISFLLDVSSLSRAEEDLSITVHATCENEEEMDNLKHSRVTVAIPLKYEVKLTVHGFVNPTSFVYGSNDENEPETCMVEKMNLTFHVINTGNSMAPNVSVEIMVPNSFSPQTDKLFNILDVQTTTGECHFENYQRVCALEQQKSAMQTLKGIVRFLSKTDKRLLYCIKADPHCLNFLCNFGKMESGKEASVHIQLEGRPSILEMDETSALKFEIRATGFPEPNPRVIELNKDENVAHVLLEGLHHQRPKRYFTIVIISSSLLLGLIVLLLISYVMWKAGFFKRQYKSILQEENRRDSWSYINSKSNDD
T2 sequence (P26010 20-798): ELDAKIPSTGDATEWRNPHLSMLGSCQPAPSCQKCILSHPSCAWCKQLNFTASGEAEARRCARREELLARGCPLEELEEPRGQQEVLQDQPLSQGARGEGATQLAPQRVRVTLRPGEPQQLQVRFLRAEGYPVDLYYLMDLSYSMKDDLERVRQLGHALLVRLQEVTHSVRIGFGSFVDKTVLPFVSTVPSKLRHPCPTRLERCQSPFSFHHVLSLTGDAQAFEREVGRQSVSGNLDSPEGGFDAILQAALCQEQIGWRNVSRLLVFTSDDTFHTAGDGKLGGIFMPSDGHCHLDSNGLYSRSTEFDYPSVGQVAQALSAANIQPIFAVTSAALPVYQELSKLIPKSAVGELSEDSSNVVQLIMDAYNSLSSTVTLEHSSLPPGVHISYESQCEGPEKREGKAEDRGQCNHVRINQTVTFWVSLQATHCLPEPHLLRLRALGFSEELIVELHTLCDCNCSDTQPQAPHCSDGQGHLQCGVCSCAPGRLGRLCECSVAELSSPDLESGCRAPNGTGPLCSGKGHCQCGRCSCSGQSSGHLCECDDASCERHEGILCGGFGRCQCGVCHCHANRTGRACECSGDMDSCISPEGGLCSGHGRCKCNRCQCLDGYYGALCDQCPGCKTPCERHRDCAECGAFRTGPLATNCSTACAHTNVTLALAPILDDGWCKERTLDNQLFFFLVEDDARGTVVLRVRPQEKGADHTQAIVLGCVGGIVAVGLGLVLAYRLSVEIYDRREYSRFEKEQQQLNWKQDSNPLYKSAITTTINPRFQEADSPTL
Protocol: as §1
Example 7 describes a cell adhesion assay.
To each well of a 96 well plate, 100 ug of recombinant human MAdCAM in 100 ul PBS is added and incubated overnight at 4° C. After incubation MAdCAM is removed by aspiration and 200 ul of PBS+1% BSA is added to block the plate for 2 hours at 37° C. and 5% CO2. During this incubation dilution curves of compound are made in 100% DMSO in 96 well V bottom plates. 1.75 ul of diluted compounds are then transferred to a new 96 well U bottom plate containing 20 ul of assay media (phosphate free DMEM+25 mM HEPES+1% BSA). To this an additional 155 ul of assay media is added with mixing by pipetting up and down. This mixture is allowed to incubate for 15 minutes at 37° C. and 5% CO2. After incubation 175 ul of assay media containing 2e6/mL RPMI8866 cells is added to compound containing wells without mixing and plate is allowed to incubate for another 15 minutes at 37° C. and 5% CO2. During this incubation MAdCAM coated plates are removed from incubator and washed twice with 200 ul PBS+0.1% BSA. […] This plate is then incubated at 37° C. and 5% CO2 for 1 hour. After incubation plates are washed twice with 200 ul and once with 50 ul of phenol free RPMI+1% BSA. A final 50 ul of phenol free RPMI+1% BSA is added to wells after last wash. Next 50 ul of Promega cell titer glow is added to the wells. Plate is incubated on shaker for 2 minutes at 200 RPM followed by another 8 minutes off shaker before having the luminescence read on a Biotek Citation 5 plate reader. Raw data is converted to % inhibition compared to bottom of curve and analyzed using a 4-parameter non linear curve in Prism to determine IC50 and IC90.

Cc1cc(C)c(-c2cc(C)c(F)c([C@H](CC(=O)O)NC(=O)C(CC(C)C)n3cc(CCN(C)C)c(C(F)(F)F)cc3=O)c2)c(C)c1 (single isomer, unassigned) [AC-P2]
IC50 [1]: ≤ 10 nM

Cc1cc(-c2c(C)cccc2C)cc([C@H](CC(=O)O)NC(=O)[C@H](CC(C)C)n2cc(CCN3CC[C@@H](F)C3)cc(F)c2=O)c1F (single isomer, unassigned) [AU-P2]
IC50 [2]: < 5 nM
